Measurements reported in US20260137687A1, “GTPase INHIBITORS AND USES THEREOF” (The Regents of The University of California, priority 2022, published 2026).

Experiments:
K-Ras(G12R) = K-Ras(G12R) (Homo sapiens, UniProt P01116, G12R); assay: Lysate target engagement assay (anti-Ras immunoblot); type: binding; parameters: pMSCV-Puro plasmids containing full length human KRAS genes (G12R); expressed in transfected cells; host or cells: Ba/F3 (mouse) transduced with pMSCV-Puro KRAS(G12R); lysate
Procedure: For co-treatment with recombinant K-Ras(G12R), Ba/F3(G12R) cells were lysed with NP-40 buffer and adjusted to 1.5 mg/mL. A 0.1 μM solution of recombinant K-Ras(G12R) was prepared in NP-40 buffer. 18 μL of Ba/F3 lysate were added to 4 μL of a 0.5 mM solution of 3 containing 10% DMSO in NP-40 buffer or DMSO as control. 18 μL of recombinant K-Ras(G12R) solution or NP-40 was added and the mixtures were incubated for 16 h at 23° C. Subsequently samples were mixed with 5×SDS Loading Dye and heated at 95° C. for 5 min.
Unless otherwise noted, SDS-PAGE was run with Novex 12% Bis-Tris gel (Invitrogen) in MES running buffer (Invitrogen) at 200 V for 60 min following the manufacturer's instructions. Protein bands were transferred onto 0.2-μm nitrocellulose membranes (Bio-Rad) using a wet-tank transfer apparatus (Bio-Rad Criterion Blotter) in 1×TOWBIN buffer with 10% methanol at 75V for 45 min. Membranes were blocked in 5% BSA-TBST for 1 h at 23° C. Primary antibody binding was performed with the indicated antibodies diluted in 5% BSA-TBST at 4° C. for at least 16 h. After washing the membrane three times with TBST (5 min each wash), secondary antibodies (goat anti-rabbit IgG-IRDye 800 and goat anti-mouse IgG-IRDye 680, Li-COR) were added as solutions in 5% skim milk-TBST at the dilutions recommended by the manufacturer. Secondary antibody binding was allowed to proceed for 1 h at 23° C. The membrane was washed three times with TBST (5 min each wash) and imaged on a Li-COR Odyssey fluorescence imager.

K-Ras(G12R)·GDP [1] = target: T1, K-Ras(G12R)·GDP (Homo sapiens, UniProt P01116, G12R); assay: Differential scanning fluorimetry; type: binding
T1 construct: human K-Ras (G12R, aa 1-169); 6xHis tag + TEV cleavage site (N, cleaved yes); made in house; host or cells: E. coli BL21(DE3)
Procedure: The protein of interest was diluted with SEC Buffer [20 mM HEPES 7.5, 150 mM NaCl, 1 mM MgCl2] to 8 μM. This solution was dispensed into wells of a white 96-well PCR plate in triplicate (25 μL/well). Fluorescence was measured at 0.5° C. temperature intervals every 30 s from 25° C. to 95° C. on a Bio-Rad CFX96 qPCR system using the FRET setting. Each data set was normalized to the highest fluorescence and the normalized fluorescence reading was plotted against temperature in GraphPad Prism 8.0. Tm values were determined as the temperature(s) corresponding to the maximum(ma) of the first derivative of the curve.

wildtype (WT) K-Ras·GDP = target: T2, wildtype (WT) K-Ras·GDP (Homo sapiens, UniProt P01116); assay: Intact protein mass spectrometry, covalent modification; type: binding; details: extended incubation at pH 7.5; 50 μM
T2 construct: human K-Ras (wildtype, aa 1-169); 6xHis tag + TEV cleavage site (N, cleaved yes); made in house; host or cells: E. coli BL21(DE3)
Procedure: (§1) Purified K-Ras variants (4 μM final) were incubated with compounds at 50 or 100 μM (1% v/v DMSO final) in 20 mM HEPES pH 7.5, 150 mM NaCl, 1 mM MgCl2 in a total volume of 150 μL. After the noted time, the samples were analyzed by intact protein LC/MS using a Waters Xevo G2-XS system equipped with an Acquity UPLC BEH C4 1.7 μm column. The mobile phase was a linear gradient of 5-95% acetonitrile/water+0.05% formic acid. The spectra were processed using QuantLynx, giving the ion counts observed for the most abundant species. For assays conducted under an alternate pH, the HEPES buffer was replaced with one of the following buffers (maintaining 150 mM NaCl and 1 mM MgCl2): 20 mM MES pH 6 or 20 mM Tris pH 9.

K-Ras(G12R)·GppNHp = target: T3, K-Ras(G12R)·GppNHp (Homo sapiens, UniProt P01116, C118S/C51S/C80L/G12R); assay: as above; type: binding; details: after 72 h; 50 μM
T3 construct: human K-Ras G12R Cyslight (G12R/C51S/C80L/C118S, aa 1-169); 6xHis tag + TEV cleavage site (N, cleaved yes); made in house; host or cells: E. coli BL21(DE3)
Procedure: as §1

K-Ras G12D = K-Ras G12D (Homo sapiens, UniProt P01116, G12D); assay: as above; type: binding; details: extended incubation at pH 7.5; 50 μM, 16 h
Procedure: as §1

K-Ras Q61R = K-Ras Q61R (Homo sapiens, UniProt P01116, Q61R); assay: as above; type: binding; details: extended incubation at pH 7.5; 50 μM, 16 h
Procedure: as §1

K-Ras Q61K = K-Ras Q61K (Homo sapiens, UniProt P01116, Q61K); assay: as above; type: binding; details: extended incubation at pH 7.5; 50 μM, 16 h
Procedure: as §1

K-Ras Q61L = K-Ras Q61L (Homo sapiens, UniProt P01116, Q61L); assay: as above; type: binding; details: extended incubation at pH 7.5; 50 μM, 16 h
Procedure: as §1

K-Ras(G12R)·GDP [2] = target: T1, K-Ras(G12R)·GDP; assay: as above; type: binding; details: for reaction rate with K-Ras(G12R)·GDP: 50 μM
Procedure: as §1

K-Ras G12V = K-Ras G12V (Homo sapiens, UniProt P01116, G12V); assay: as above; type: binding; details: extended incubation at pH 7.5; 50 μM, 16 h
Procedure: as §1

[3] = Stability in aqueous buffers; type: physicochemical; details: over a range of pH

CC(=O)C(O)(O)C(=O)N1[C@@H]2CC[C@H]1CN(c1nc(OCC34CCCN3CCC4)nc3c(F)c(-c4cccc5cccc(Cl)c45)ncc13)C2 [compound 3, 1-((1R,5S)-3-(7-(8-chloronaphthalen-1-yl)-8-fluoro-2-((tetrahydro-1H-pyrrolizin-7a(5H)-yl)methoxy)pyrido[4,3-d]pyrimidin-4-yl)-3,8-diazabicyclo[3.2.1]octan-8-yl)-2,2-dihydroxybutane-1,3-dione]
modification of exogenous recombinant K-Ras(G12R)·GDP added to lysate (K-Ras(G12R); after 16 h of incubation): complete modification
modification of endogenous K-Ras(G12R) in BaF3/K-Ras(G12R) lysates (K-Ras(G12R); lysate not pre-loaded with GDP): did not detect any modification
modification of endogenous K-Ras(G12R) in BaF3/K-Ras(G12R) lysates (K-Ras(G12R); lysates pre-loaded with excess GDP): covalent modification
increase of melting temperature of K-Ras(G12R)·GDP·3 adduct vs unmodified K-Ras(G12R)·GDP (K-Ras(G12R)·GDP [1]): 9.1 °C
covalent modification of wildtype K-Ras·GDP (wildtype (WT) K-Ras·GDP): did not modify
modification of K-Ras(G12R)·GppNHp (K-Ras(G12R)·GppNHp): < 5%
covalent modification of K-Ras G12D (K-Ras G12D): did not modify
covalent modification of K-Ras Q61R (K-Ras Q61R): did not modify
covalent modification of K-Ras Q61K (K-Ras Q61K): did not modify
covalent modification of K-Ras Q61L (K-Ras Q61L): did not modify
modification of surface exposed arginines of K-Ras (K-Ras(G12R)·GDP [2]): not modified
covalent adduct formation with recombinant K-Ras(G12R)·GDP (K-Ras(G12R)·GDP [2]; 100 μM compound, pH 7.5, 23° C., adducts +656 Da and +638 Da): stoichiometric covalent adduct
reaction rate with K-Ras(G12R)·GDP (K-Ras(G12R)·GDP [2]; pH 6): greatly reduced rate
reaction rate with K-Ras(G12R)·GDP (K-Ras(G12R)·GDP [2]; pH 8): reached maximum
reaction rate with K-Ras(G12R)·GDP (K-Ras(G12R)·GDP [2]; pH 9): did not further increase
reversibility of adduct formation (K-Ras(G12R)·GDP [2]; purified adduct incubated at pH 7.5 for 7 days at 23° C.): irreversible
covalent modification of K-Ras G12V (K-Ras G12V): did not modify
stability in aqueous buffers [3]: stable
